Laboratory results reported in ChEMBL document CHEMBL1127639, “Structural features important for sigma 1 receptor binding” (J Med Chem, 1994).

Assay: Binding affinity against [3H]-3-PPP labelled sigma sites

- Ki: 7.4 nM
Structure (SMILES): CN(CCc1ccccc1)CCN1CCCC1
